Data taken from publication PMC7918049, “Juncaceae Species as Promising Sources of Phenanthrenes: Antiproliferative Compounds from Juncus maritimus Lam” (Molecules, 2021).

System: KCR, drug-resistant subline of the human breast cancer MCF-7
Experiment: MTT antiproliferative assay, KCR
Type: cell-based
Conditions: Homo sapiens, MCF7, 72 h, mean of four parallel experiments, read-out: IC50 (µM) ± SD KCR
Method: (§1) Breast cancer cell line MCF-7 (ATCC®® HTB-22) and the drug-resistant subline of the human breast cancer MCF-7 (ECACC 86012803; KCR) were purchased from LGC Promochem (Teddington, UK). Both cell lines were cultured in Eagle’s Minimal Essential Medium (EMEM, containing 4.5 g/L glucose) supplemented with a non-essential amino acid mixture, a selection of vitamins, and 10% heat-inactivated fetal bovine serum. In every third passage, 0.56 µg/mL doxorubicin was added to the medium in order to maintain the ABCB1 (P-glycoprotein) expression in KCR cells. A2780 human ovarian cancer cell line (ECACC European Collection of Authentical Cell Culture, Sigma Cat. no. 93112519) and the cisplatin-resistant human ovarian cancer cell line A2780cis (ECACC European Collection of Authentical Cell Culture, Sigma Cat. no. 93112517) were purchased from Merck KGaA (Darmstadt, Germany). The human ovarian cancer cell lines were cultured in RPMI 1640 medium supplemented with 10% heat-inactivated fetal bovine serum. The RPMI 1640 medium of the cisplatin-resistant cell line A2780 was supplemented with 1 µM cisplatin. HeLa (ATCC® CCL-2™) human cervix carcinoma, HTB-26 breast adenocarcinoma, T-47D (ATCC® HTB-133™) ductal carcinoma, and MRC-5 human embryonal lung fibroblast cell lines (ATCC® CCL-171) were purchased from LGC Promochem (Teddington, UK). The cells were cultured in Eagle’s Minimal Essential Medium (EMEM, containing 4.5 g/L glucose) supplemented with a non-essential amino acid mixture, a selection of vitamins, and 10% heat-inactivated fetal bovine serum. HTB-26 cell line was cultured in RPMI 1640 medium supplemented with 10% heat-inactivated fetal bovine serum. T-47D cells were cultured in RPMI 1640 medium supplemented with 10% heat-inactivated fetal bovine serum, 2 mM L-glutamine, 1 mM Na-pyruvate, and 100 mM Hepes. All of the cells were incubated at 37 °C, in a 5% CO2, 95% air atmosphere.
(§2) The antiproliferative effect of the compounds was determined on the human breast (MCF-7, KCR, T-47D, HTB-26), cervical (HeLa), and ovarian (A2780, A2780cis) cancer cells, and on MRC-5 (human embryonic lung fibroblast) cell line. The adherent cells were cultured in 96-well flat-bottomed microtiter plates, using EMEM supplemented with 10% heat-inactivated fetal bovine serum or RPMI 1640 supplemented with 10% heat-inactivated fetal bovine serum, respectively. The density of the cells was adjusted to 6 × 10^3 cells in 100 μL per well, the cells were seeded for 24 h at 37 °C, 5% CO2, then the medium was removed from the plates and fresh medium (100 μL per well) was added to the cells. The effects of increasing concentrations of compounds on cell proliferation were tested in 96-well flat-bottomed microtiter plates. The compounds were diluted in the appropriate medium, the dilutions of compounds were performed in separate plates and then added to the cells. The starting concentration of the compounds was 100 μM, and two-fold serial dilution was performed (concentration range: 100-0.19 μM). The culture plates were incubated at 37 °C for 72 h; at the end of the incubation period, 20 μL of MTT (thiazolyl blue tetrazolium bromide, Sigma) solution (from a stock solution of 5 mg/mL) was added to each well. After incubation at 37 °C for 4 h, 100 μL of sodium dodecyl sulfate (SDS) (Sigma) solution (10% in 0.01 M HCI) were added to each well and the plates were further incubated at 37 °C overnight. Cell growth was determined by measuring the optical density (OD) at 540/630 nm with Multiscan EX ELISA reader (Thermo Labsystems, Cheshire, WA, USA). Mean IC50 values were obtained by best fitting the dose-dependent inhibition curves in GraphPadPrism5 program (GraphPad Software version 5.00 for Windows, San Diego, CA, USA) from four parallel experiments for each cell line. Results are expressed in terms of IC50, defined as the inhibitory dose that reduces the proliferation of the cells exposed to the tested compounds by 50% [14].

Row | IC50 | SMILES
1 | 19.6 ± 0.9 µM | C=Cc1cc(O)cc2c1-c1cc(-c3cc4c(c(C)c3O)CCc3cc(O)cc(C=C)c3-4)c(O)c(C)c1CC2 [Compound 11, effususin A]
2 | 68.4 ± 2.5 µM | C=Cc1cc(C)cc2c1-c1ccc(O)c(C)c1CC2 [Compound 9, juncunol]
3 | 57.6 ± 0.7 µM | C=Cc1cc(O)c(CO)c2c1-c1ccc(O)c(C)c1CC2 [Compound 1, maritin A]

System: cisplatin-resistant human ovarian cancer cell line A2780cis
Experiment: MTT antiproliferative assay, A2780cis
Type: cell-based
Conditions: 72 h, mean of four parallel experiments, read-out: IC50 (µM) ± SD A2780cis
Method: as §1, §2

Row | IC50 | SMILES
4 | 16.3 ± 0.3 µM | C=Cc1cc(O)cc2c1-c1cc(-c3cc4c(c(C)c3O)CCc3cc(O)cc(C=C)c3-4)c(O)c(C)c1CC2 [Compound 11, effususin A]

Same assay, conditions: Homo sapiens, 72 h, mean of four parallel experiments, read-out: IC50 (µM) ± SD A2780cis

Row | IC50 | SMILES
5 | < 20 µM | C=Cc1cc(O)cc2c1-c1cc(-c3cc4c(c(C)c3O)CCc3cc(O)cc(C=C)c3-4)c(O)c(C)c1CC2 [Compound 11, effususin A]
6 | 52.8 ± 2.4 µM | C=Cc1cc(C)cc2c1-c1ccc(O)c(C)c1CC2 [Compound 9, juncunol]
7 | 40.1 ± 0.4 µM | C=Cc1cc(O)c(CO)c2c1-c1ccc(O)c(C)c1CC2 [Compound 1, maritin A]

System: MRC-5 human embryonal lung fibroblast cell line
Experiment: MTT antiproliferative assay, MRC-5 normal cells
Type: cell-based
Conditions: 72 h, MRC-5 versus cancer cell lines
Method: as §1, §2

Row | SMILES | selectivity: effect on MRC-5 normal lung fibroblasts compared to cancer cell lines (in words)
8 | C=Cc1cc(O)c(CO)c2c1-c1ccc(O)c(C)c1CC2 [Compound 1, maritin A] | less antiproliferative effect on MRC-5 normal lung fibroblasts compared to the other cancer cell lines

Same assay, conditions: Homo sapiens, MRC5, 72 h, MRC-5 normal fibroblasts, mean of four parallel experiments, read-out: IC50 (µM) ± SD MRC-5

Row | SMILES | IC50
9 | C=Cc1cc(O)cc2c1-c1cc(-c3cc4c(c(C)c3O)CCc3cc(O)cc(C=C)c3-4)c(O)c(C)c1CC2 [Compound 11, effususin A] | 20.1 ± 1.6 µM
10 | C=Cc1cc(C)cc2c1-c1ccc(O)c(C)c1CC2 [Compound 9, juncunol] | 78.4 ± 3.7 µM
11 | C=Cc1cc(O)c(CO)c2c1-c1ccc(O)c(C)c1CC2 [Compound 1, maritin A] | 75.4 ± 1.8 µM

System: Zymoseptoria tritici
Experiment: not given
Parameters: method as in PMID 28484977
Conditions: cited from earlier work

Row | SMILES | in vitro antifungal activity against Zymoseptoria tritici (in words)
12 | C=Cc1cc(O)cc2c1-c1ccc(O)c(C)c1CC2 [Compound 6, effusol] | significant in vitro antifungal activity

System: A2780 human ovarian cancer cell line
Experiment: MTT antiproliferative assay, A2780
Type: cell-based
Conditions: Homo sapiens, 72 h, A2780, mean of four parallel experiments, read-out: IC50 (µM) ± SD A2780
Method: as §1, §2

Row | IC50 | SMILES
13 | 25.6 ± 2.4 µM | C=Cc1cc(O)cc2c1-c1cc(-c3cc4c(c(C)c3O)CCc3cc(O)cc(C=C)c3-4)c(O)c(C)c1CC2 [Compound 11, effususin A]
14 | 43.5 ± 1.1 µM | C=Cc1cc(C)cc2c1-c1ccc(O)c(C)c1CC2 [Compound 9, juncunol]
15 | 21.5 ± 0.4 µM | C=Cc1cc(O)c(CO)c2c1-c1ccc(O)c(C)c1CC2 [Compound 1, maritin A]

System: hepatitis C (HCV) replication
Experiment: not given
Parameters: method as in PMID 30842319
Conditions: cited from earlier work

Row | SMILES | inhibition of hepatitis C (HCV) replication (in words)
16 | C=Cc1c(C)c(O)cc2ccc3c(C)c(O)ccc3c12 [dehydrojuncusol] | novel inhibitor of hepatitis C (HCV) replication

System: HTB-26 breast adenocarcinoma cells
Experiment: MTT antiproliferative assay, HTB-26
Type: cell-based, human
Conditions: Homo sapiens, HTB26, 72 h, HTB-26, mean of four parallel experiments, read-out: IC50 (µM) ± SD HTB-26
Method: as §1, §2

Row | IC50 | SMILES
17 | 24.7 ± 2.1 µM | C=Cc1cc(O)cc2c1-c1cc(-c3cc4c(c(C)c3O)CCc3cc(O)cc(C=C)c3-4)c(O)c(C)c1CC2 [Compound 11, effususin A]
18 | 75 ± 5 µM | C=Cc1cc(C)cc2c1-c1ccc(O)c(C)c1CC2 [Compound 9, juncunol]
19 | 48.7 ± 1.6 µM | C=Cc1cc(O)c(CO)c2c1-c1ccc(O)c(C)c1CC2 [Compound 1, maritin A]
20 | 57 ± 2.73 µM | C=Cc1cc(O)cc2c1-c1ccc(O)c(C)c1CC2 [Compound 6, effusol]

System: HeLa, HTB-26, T-47D, A2780, A2780cis, MCF-7, KCR and MRC-5 cell lines
Experiment: MTT antiproliferative assay, all cell lines investigated (overall statements)
Type: cell-based, human
Conditions: 72 h, all cell lines tested
Method: Breast cancer cell line MCF-7 (ATCC®® HTB-22) and the drug-resistant subline of the human breast cancer MCF-7 (ECACC 86012803; KCR) were purchased from LGC Promochem (Teddington, UK). Both cell lines were cultured in Eagle’s Minimal Essential Medium (EMEM, containing 4.5 g/L glucose) supplemented with a non-essential amino acid mixture, a selection of vitamins, and 10% heat-inactivated fetal bovine serum. In every third passage, 0.56 µg/mL doxorubicin was added to the medium in order to maintain the ABCB1 (P-glycoprotein) expression in KCR cells. A2780 human ovarian cancer cell line (ECACC European Collection of Authentical Cell Culture, Sigma Cat. no. 93112519) and the cisplatin-resistant human ovarian cancer cell line A2780cis (ECACC European Collection of Authentical Cell Culture, Sigma Cat. no. 93112517) were purchased from Merck KGaA (Darmstadt, Germany). The human ovarian cancer cell lines were cultured in RPMI 1640 medium supplemented with 10% heat-inactivated fetal bovine serum. […]
The antiproliferative effect of the compounds was determined on the human breast (MCF-7, KCR, T-47D, HTB-26), cervical (HeLa), and ovarian (A2780, A2780cis) cancer cells, and on MRC-5 (human embryonic lung fibroblast) cell line. […] Cell growth was determined by measuring the optical density (OD) at 540/630 nm with Multiscan EX ELISA reader (Thermo Labsystems, Cheshire, WA, USA). […]

Row | SMILES | antiproliferative activity across the cell lines investigated (in words)
21 | C=Cc1cc(O)cc2c1-c1cc(-c3cc4c(c(C)c3O)CCc3cc(O)cc(C=C)c3-4)c(O)c(C)c1CC2 [Compound 11, effususin A] | substantial antiproliferative activity against all cell lines investigated

System: HeLa human cervix carcinoma cells
Experiment: MTT antiproliferative assay, HeLa
Type: cell-based
Conditions: Homo sapiens, 72 h, mean of four parallel experiments, read-out: IC50 (µM) ± SD HeLa
Method: as §1, §2

Row | IC50 | SMILES
22 | 25.2 ± 0.6 µM | C=Cc1cc(O)cc2c1-c1cc(-c3cc4c(c(C)c3O)CCc3cc(O)cc(C=C)c3-4)c(O)c(C)c1CC2 [Compound 11, effususin A]
23 | 76.7 ± 1.8 µM | C=Cc1cc(C)cc2c1-c1ccc(O)c(C)c1CC2 [Compound 9, juncunol]
24 | 57 ± 1.3 µM | C=Cc1cc(O)c(CO)c2c1-c1ccc(O)c(C)c1CC2 [Compound 1, maritin A]
25 | 0.5 µM | C=Cc1c(C)c(O)cc2c1-c1ccc(O)c(C)c1CC2 [Compound 5, juncusol]
26 | 2.3 ± 0.7 µM | C=Cc1cc(O)cc2c1-c1ccc(O)c(C)c1CC2 [Compound 6, effusol]

System: Breast cancer cell line MCF-7
Experiment: MTT antiproliferative assay, MCF-7
Type: cell-based, human
Conditions: Homo sapiens, MCF7, 72 h, MCF-7, mean of four parallel experiments, read-out: IC50 (µM) ± SD MCF-7
Method: as §1, §2

Row | IC50 | SMILES
27 | < 20 µM | C=Cc1cc(O)cc2c1-c1cc(-c3cc4c(c(C)c3O)CCc3cc(O)cc(C=C)c3-4)c(O)c(C)c1CC2 [Compound 11, effususin A]
28 | 45.7 ± 2.4 µM | C=Cc1cc(C)cc2c1-c1ccc(O)c(C)c1CC2 [Compound 9, juncunol]
29 | 34.7 ± 3 µM | C=Cc1cc(O)c(CO)c2c1-c1ccc(O)c(C)c1CC2 [Compound 1, maritin A]

System: T-47D ductal carcinoma cells
Experiment: MTT antiproliferative assay, T-47D
Type: cell-based, human
Conditions: Homo sapiens, T47D, 72 h, mean of four parallel experiments, read-out: IC50 (µM) ± SD T-47D
Method: as §1, §2

Row | IC50 | SMILES
30 | 6.2 ± 0.1 µM | C=Cc1cc(O)cc2c1-c1cc(-c3cc4c(c(C)c3O)CCc3cc(O)cc(C=C)c3-4)c(O)c(C)c1CC2 [Compound 11, effususin A]
31 | 41.4 ± 5.8 µM | C=Cc1cc(C)cc2c1-c1ccc(O)c(C)c1CC2 [Compound 9, juncunol]
32 | 12.8 ± 0.9 µM | C=Cc1cc(O)c(CO)c2c1-c1ccc(O)c(C)c1CC2 [Compound 1, maritin A]
33 | 25 ± 0.4 µM | C=Cc1c(C)c(O)cc2c1-c1ccc(O)c(C)c1CC2 [Compound 5, juncusol]
